From ChEMBL document CHEMBL3243936, “Facile syntheses of potent dopaminergic argonists and their effect on neurotransmitter release” (J Med Chem, 1978)
Calls of active or inactive are those of the source. The rule behind the calls is not given here.

Assays:
[1] = biological target: Sodium-dependent dopamine transporter (Rattus norvegicus) (UniProt P23977); experiment: Agonist activity at Wistar rat striatum dopamine transporter assessed as tritium efflux by measuring [3H]dopamine release at 2 uM after 20 mins by liquid scintillation counting analysis relative to total tissue content
[2] = biological target: Sodium-dependent dopamine transporter (Rattus norvegicus) (UniProt P23977); experiment: Agonist activity at Wistar rat striatum dopamine transporter assessed as tritium efflux by measuring [3H]dopamine release at 1 uM after 20 to 30 mins by liquid scintillation counting analysis in presence of nomifensine
Rattus norvegicus = organism: Rattus norvegicus; experiment: Agonist activity at Wistar rat brain GABA transporter assessed as tritium efflux by measuring [3H]GABA release at 2 uM after 20 to 30 mins by liquid scintillation counting analysis relative to control
[3] = biological target: T1, Vesicular acetylcholine transporter (Rattus norvegicus) (UniProt Q62666); experiment: Agonist activity at Wistar rat brain cholinergic transporter assessed as tritium efflux by measuring [3H]choline release at 2 uM after 20 to 30 mins by liquid scintillation counting analysis relative to control
T1 sequence (whole entry): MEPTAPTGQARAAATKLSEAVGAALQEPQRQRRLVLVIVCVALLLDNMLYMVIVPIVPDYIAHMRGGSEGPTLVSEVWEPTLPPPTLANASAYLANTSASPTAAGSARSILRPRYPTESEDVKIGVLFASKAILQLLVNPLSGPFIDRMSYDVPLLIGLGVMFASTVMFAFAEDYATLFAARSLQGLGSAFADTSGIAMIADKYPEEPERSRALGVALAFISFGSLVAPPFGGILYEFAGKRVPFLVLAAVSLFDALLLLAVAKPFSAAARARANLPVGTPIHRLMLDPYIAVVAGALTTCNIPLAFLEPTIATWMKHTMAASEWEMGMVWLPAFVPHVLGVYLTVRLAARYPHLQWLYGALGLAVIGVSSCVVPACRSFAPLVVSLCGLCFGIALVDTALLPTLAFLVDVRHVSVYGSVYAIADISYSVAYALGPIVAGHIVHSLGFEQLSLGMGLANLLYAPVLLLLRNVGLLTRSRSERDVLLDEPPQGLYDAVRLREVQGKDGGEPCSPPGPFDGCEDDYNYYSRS

[4] = biological target: Sodium-dependent serotonin transporter (Rattus norvegicus) (UniProt P31652); experiment: Agonist activity at Wistar rat brain serotonin transporter assessed as tritium efflux by measuring [3H]serotonin release at 2 uM after 20 to 30 mins by liquid scintillation counting analysis relative to control
[5] = biological target: Sodium-dependent dopamine transporter (Rattus norvegicus) (UniProt P23977); experiment: Agonist activity at Wistar rat cortex dopamine transporter assessed as tritium efflux by measuring [3H]noradrenaline release at 1 uM after 20 to 30 mins by liquid scintillation counting analysis in presence of nomifensine; format: tissue-based

Chain of Sodium-dependent dopamine transporter (Rattus norvegicus) (P23977 whole entry): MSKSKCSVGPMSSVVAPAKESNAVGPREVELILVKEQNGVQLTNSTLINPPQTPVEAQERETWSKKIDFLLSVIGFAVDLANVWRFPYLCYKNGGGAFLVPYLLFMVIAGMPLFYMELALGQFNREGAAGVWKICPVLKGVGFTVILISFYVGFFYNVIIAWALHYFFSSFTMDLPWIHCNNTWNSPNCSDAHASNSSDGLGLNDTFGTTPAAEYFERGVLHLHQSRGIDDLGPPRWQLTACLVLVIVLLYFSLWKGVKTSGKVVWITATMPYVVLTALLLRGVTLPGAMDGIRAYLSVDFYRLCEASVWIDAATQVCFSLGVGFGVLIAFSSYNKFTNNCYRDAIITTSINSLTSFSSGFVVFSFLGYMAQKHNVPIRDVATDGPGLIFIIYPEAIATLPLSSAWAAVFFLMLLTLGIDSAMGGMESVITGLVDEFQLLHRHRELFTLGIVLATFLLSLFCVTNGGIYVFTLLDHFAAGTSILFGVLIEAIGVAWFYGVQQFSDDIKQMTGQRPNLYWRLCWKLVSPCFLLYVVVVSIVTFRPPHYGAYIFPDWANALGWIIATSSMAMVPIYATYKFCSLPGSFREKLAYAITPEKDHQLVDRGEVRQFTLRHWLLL
Chain of Sodium-dependent serotonin transporter (Rattus norvegicus) (P31652 whole entry): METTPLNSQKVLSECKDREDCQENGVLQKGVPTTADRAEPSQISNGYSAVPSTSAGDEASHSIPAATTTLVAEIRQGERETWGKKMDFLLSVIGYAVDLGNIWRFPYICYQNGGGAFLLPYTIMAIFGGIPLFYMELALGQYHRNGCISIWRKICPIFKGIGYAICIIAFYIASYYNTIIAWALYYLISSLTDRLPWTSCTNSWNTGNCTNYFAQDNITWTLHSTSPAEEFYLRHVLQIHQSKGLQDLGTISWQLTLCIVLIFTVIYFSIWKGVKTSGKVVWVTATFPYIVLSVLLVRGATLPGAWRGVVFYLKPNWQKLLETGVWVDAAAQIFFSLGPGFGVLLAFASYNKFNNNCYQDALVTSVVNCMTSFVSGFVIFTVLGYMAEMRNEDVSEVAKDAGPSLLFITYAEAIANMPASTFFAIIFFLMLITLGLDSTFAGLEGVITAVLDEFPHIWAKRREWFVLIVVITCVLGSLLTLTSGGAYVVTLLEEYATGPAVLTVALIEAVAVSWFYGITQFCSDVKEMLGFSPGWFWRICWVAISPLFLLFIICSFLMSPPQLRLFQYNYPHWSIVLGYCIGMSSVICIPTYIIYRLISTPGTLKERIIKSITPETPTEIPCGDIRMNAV

SMILES	Activity [1] [%]	Activity [2]	Activity (Rattus norvegicus)	Activity [3]	Activity [4]	Activity [5]
NC1CCc2ccccc2C1 (stereo unspecified)	-0.7	–	–	–	–	–
NC1CCc2cc(O)c(O)cc2C1 (stereo unspecified)	25.1	inactive	inactive	inactive	inactive	inactive
NC1CCc2c(ccc(O)c2O)C1 (stereo unspecified)	6.5	–	inactive	inactive	inactive	–
